# Experiments:
# [1] = system: LTB4 production in human whole blood; assay: Inhibition of LTB4 Production in Blood; assay type: cell-based; conditions: 1 h, 20 μM A23187, 60 minutes at 37° C., LTB4 in plasma by ELISA, read-out: protection against LTB4 at an EC50
# Method: • Human whole blood (Na citrate) (Stanford Blood Center) • A23187, (Sigma, Cat# C-7522) • Leukotriene B4 EIA reagents (Cayman Chemical, Cat # 520111) • BWA4C (Sigma, Cat # B7559) Procedure Preparation of A23187:
# A23187 was prepared as a 10 mM stock solution in DMSO (aliquots can be stored at −20° C.). On the day of the assay the stock solution was diluted as follows: 70 μL 10 mM stock added to 1.6 mL plasma to give a working concentration of 0.42 mM.
# From a 30 mM stock solution in DMSO, test articles were diluted to a working concentration of 600 μM in PBS (i.e. 10 μL stock solution+490 μL PBS). This is the highest concentration (gives a final testing concentration of 30 μM). From this 600 μM solution test articles were serially diluted 1:3 in PBS to give a dose-response curve. 10 μL of each concentration of test article was then added to 4 wells of a 96-well plate (i.e. testing in quadruplicate). A positive control compound, BWA4C was used in every assay.
# Human whole blood was added to the plates containing compounds (190 μL per well) and mixed well. The blood was incubated with compound at 37° C. for 15 minutes. Following this incubation, 10 μL of 0.42 mM A23187 was added to each well except the negative control wells to give a final calcium ionophore concentration of 20 μM. The plates were then incubated at 37° C. for 60 minutes. After the incubation period, plates were centrifuged for 15 min at 2000 g at 4° C. in sealed microplate buckets. Plasma was then removed for quantitation of LTB4 levels by ELISA.
# LTB4 levels in the plasma were determined using a commercially available ELISA kit from Cayman Chemicals. The ELISA was run according to the manufacturer's instructions. The LTB4 levels in the vehicle control sample were then compared to those in which the test article had been added. From this a percent inhibition of LTB4 production by each concentration of test article was calculated and the IC50 was determined.
# [2] = target: T1, human recombinant 5-Lipoxygenase (Homo sapiens, UniProt P09917); assay: 5-Lipoxygenase Enzyme Assay; assay type: biochemical; conditions: 70 μM arachidonic acid, 10 minute incubation at room temperature, FOX reagent, absorbance at 620 nm; read-out: inhibition of 5-Lipoxygenase with an IC50
# T1 sequence (P09917 1-674): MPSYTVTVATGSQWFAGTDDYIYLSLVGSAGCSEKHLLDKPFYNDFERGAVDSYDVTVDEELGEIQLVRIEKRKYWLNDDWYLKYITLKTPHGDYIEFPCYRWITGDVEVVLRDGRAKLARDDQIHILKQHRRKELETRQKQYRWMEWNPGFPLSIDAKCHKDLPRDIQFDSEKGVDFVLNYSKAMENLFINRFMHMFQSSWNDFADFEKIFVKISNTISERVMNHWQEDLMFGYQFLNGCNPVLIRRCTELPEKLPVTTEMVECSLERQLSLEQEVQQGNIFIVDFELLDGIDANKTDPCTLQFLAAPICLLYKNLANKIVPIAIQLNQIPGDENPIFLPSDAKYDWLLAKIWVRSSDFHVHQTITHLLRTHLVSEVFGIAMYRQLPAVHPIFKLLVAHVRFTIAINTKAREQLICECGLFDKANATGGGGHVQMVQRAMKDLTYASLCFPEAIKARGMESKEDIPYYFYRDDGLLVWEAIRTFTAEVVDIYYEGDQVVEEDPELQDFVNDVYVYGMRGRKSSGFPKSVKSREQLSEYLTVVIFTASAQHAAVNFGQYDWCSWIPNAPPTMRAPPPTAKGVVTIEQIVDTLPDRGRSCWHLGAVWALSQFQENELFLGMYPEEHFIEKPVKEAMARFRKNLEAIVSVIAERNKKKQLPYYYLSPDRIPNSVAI
# Excerpt: This procedure was used for measuring the enzymatic activity of human recombinant 5-Lipoxygenase using a colorimetric method based on the ferric oxidation of xylenol orange.
# • 96 well flat bottom microfilter plates (VWR, Catalog # 62402-933 9295) • Lipoxygenase screening assay buffer (Cayman, Catalog # 760710) • Human recombinant 5-Lipoxygenase (Cayman, Catalog # 60402) • Arachidonic Acid (Sigma, Catalog # A3555) • Xylenol orange tetra sodium salt (Aldrich, Catalog # 227854) • Iron (II) sulfate heptahydrate (Sigma, Catalog # F7002) • Sulfuric acid (95-98%) [18 M] • Methanol Procedure
# Human recombinant 5-Lipoxygenase (Cayman Cat # 60402) was used in this assay. The test compound and/or vehicle was added to 0.5 μL 5-Lipoxygenase in 50 mM Tris-HCl buffer, pH 7.4. The reaction was initiated by addition of 70 μM arachidonic acid in Tris-HCl buffer, pH 7.4, and terminated after a 10 minute incubation at room temperature by addition of FOX reagent (25 mM sulfuric acid, 100 μM xylenol orange, 100 μM iron (II) sulfate, methanol:water 9:1). The yellow color of acidified xylenol orange was converted to a blue color by the lipid hydroperoxide-mediated oxidation of Fe^2+ ions and the interaction of the resulting Fe^3+ ions with the dye. The complex was allowed to form during a 1 hour incubation at room temperature with shaking. Absorbance of the Fe^3+ complex was then measured at […] using a spectrophotometer.
# Negative controls contained enzyme during the incubation step but substrate was not added until after the FOX reagent. Compounds were screened at 5 concentrations in triplicate starting at 10 μM
EC50 [1] [µM],IC50 [2] [µM],SMILES
< 10,< 0.3,"CCc1cc2c(c(CC)c1O)[C@@H](O)CC1(CCC1)O2 [(S)-5,7-diethylspiro[chroman-2,1′-cyclobutane]-4,6-diol]"
< 10,< 0.3,"Cc1c(O)c(C(C)C)cc2c1[C@H](O)CC1(CCC1)O2 [(R)-7-isopropyl-5-methylspiro[chroman-2,1′-cyclobutane]-4,6-diol]"
< 10,< 0.3,"CCc1cc2c(c(CC)c1O)[C@H](O)CC1(CCC1)O2 [(R)-5,7-diethylspiro[chroman-2,1′-cyclobutane]-4,6-diol]"
< 10,–,"Cc1c(O)c(C)c2c(c1CO)OC1(CCC1)CC2 [8-(hydroxymethyl)-5,7-dimethyl-3,4-dihydrospiro[chromene-2,1′-cyclobutan]-6-ol]"
< 10,< 0.3,"Cc1ccc(S(=O)(=O)NCCN2CC3(CCC3)Cc3cc(O)c(C)c(C)c32)cc1 [N-(2-(6′-hydroxy-7′,8′-dimethyl-2′,4′-dihydro-1′H-spiro[cyclobutane-1,3′-quinoline]-1′-yl)ethyl)-4-methylbenzenesulfonamide]"
< 10,< 0.3,"Cc1c(O)cc2c(c1C)N(CCCNC(=O)c1ccccc1)CC1(CCC1)C2 [N-(3-(6′-hydroxy-7′,8′-dimethyl-2′,4′-dihydro-1′H-spiro[cyclobutane-1,3′-quinoline]-1′-yl)propyl)benzamide]"
< 10,< 0.3,"Cc1c(O)c(C(C)C)cc2c1[C@@H](O)CC1(CCC1)O2 [(S)-7-isopropyl-5-methylspiro[chroman-2,1′-cyclobutane]-4,6-diol]"
< 10,< 0.3,"Cc1c(O)c(C(C)C)c(CO)c2c1CCC1(CCC1)O2 [8-(hydroxymethyl)-7-isopropyl-5-methylspiro[chroman-2,1′-cyclobutan]-6-ol]"
< 10,< 0.3,"Cc1ccc(S(=O)(=O)NCCCN2CC3(CCC3)Cc3cc(O)c(C)c(C)c32)cc1 [N-(3-(6′-hydroxy-7′,8′-dimethyl-2′,4′-dihydro-1′H-spiro[cyclobutane-1,3′-quinoline]-1′-yl)propyl)-4-methylbenzenesulfonamide]"
< 10,< 0.3,"CCc1c(O)c(CC)c2c(c1CO)OC1(CCC1)CC2 [(Z)-5,7-diethyl-8-(hydroxymethyl)-3,4-dihydrospiro[chromene-2,1′-cyclobutan]-6-ol]"

# Further lines, the compound ahead of its results:
SMILES,EC50 [1] [µM],IC50 [2] [µM]
"Cc1cc2c(c(C)c1O)C(O)CC1(CCC1)O2 (stereo not drawn) [5,7-dimethyl-3,4-dihydrospiro[chromene-2,1′-cyclobutane]-4,6-diol]",< 10,–
"Cc1c(O)c(C(C)C)cc2c1C(O)CC1(CCC1)O2 (stereo not drawn) [7-isopropyl-5-methylspiro[chroman-2,1′-cyclobutane]-4,6-diol]",< 10,< 0.3
"Cc1cc2c(c(C)c1O)C(O)C1(CCC1)CO2 (stereo not drawn) [5,7-dimethyl-4H-spiro[chromene-3,1′-cyclobutane]-4,6-diol]",< 10,–
"CCc1cc2c(c(CC)c1O)CCC1(CCC1)O2 [5,7-diethyl-3,4-dihydrospiro[chromene-2,1′-cyclobutan]-6-ol]",< 10,< 0.3
"Cc1c(C)c2c(c(C)c1O)C(N(C)O)CC1(CCC1)O2 (stereo not drawn) [4-[hydroxy(methyl)amino]-5,7,8-trimethyl-3,4-dihydrospiro[chromene-2,1′-cyclobutan]-6-ol]",< 10,< 0.3
"CCc1c(O)c(C(C)C)cc2c1C(O)CC1(CCC1)O2 (stereo not drawn) [5-ethyl-7-isopropylspiro[chroman-2,1′-cyclobutane]-4,6-diol]",< 10,–
"CONC1CC2(CCC2)Oc2cc(C(C)C)c(O)c(C)c21 (stereo not drawn) [7-isopropyl-4-(methoxyamino)-5-methyl-3,4-dihydrospiro[chromene-2,1′-cyclobutan]-6-ol]",< 10,< 0.3
"Cc1cc2c(c(C)c1O)C=C(c1nc(C)c(C)[nH]1)C1(CCC1)O2 [5,7-dimethyl-3-(-(4,5-dimethyl-1H-imidazol-2-yl)spiro[chromene-2,1′-cyclobutan]-6-ol]",< 10,< 0.3
"COC1CC2(CCC2)Oc2cc(C(C)C)c(O)c(C)c21 (stereo not drawn) [7-isopropyl-4-methoxy-5-methylspiro[chroman-2,1′-cyclobutan]-6-ol]",< 10,< 0.3
"Cc1c(C)c2c(c(C)c1O)C(O)C1(CCC1)CO2 (stereo not drawn) [5,7,8-trimethylspiro[chroman-3,1′-cyclobutane]-4,6-diol]",< 10,< 0.3
"CCc1c(O)c(C)cc2c1C(NOC)CC1(CCC1)O2 (stereo not drawn) [5-ethyl-4-(methoxyamino)-7-methyl-3,4-dihydrospiro[chromene-2,1′-cyclobutan]-6-ol]",< 10,< 0.3
"CCc1cc2c(c(C)c1O)C(NOC)CC1(CCC1)O2 (stereo not drawn) [7-ethyl-4-(methoxyamino)-5-methyl-3,4-dihydrospiro[chromene-2,1′-cyclobutan]-6-ol]",< 10,< 0.3
"Cc1c(O)c(C(C)C)cc2c1C(O)C1(CCC1)CO2 (stereo not drawn) [7-isopropyl-5-methylspiro[chroman-3,1′-cyclobutane]-4,6-diol]",< 10,–
"Cc1cc2c(c(C)c1O)C(N(C)O)CC1(CCC1)O2 (stereo not drawn) [4-[hydroxy(methyl)amino]-5,7-dimethyl-3,4-dihydrospiro[chromene-2,1′-cyclobutan]-6-ol]",< 10,–
"Cc1c(O)cc2c(c1C)N(c1ccc(N(C)C)nc1)CC1(CCC1)C2 [1′-(6-(dimethylamino)pyridin-3-yl)-7′,8′-dimethyl-2′,4′-dihydro-1′H-spiro[cyclobutane-1,3′-quinolin]-6′-ol]",< 10,< 0.3
"Cc1c(O)cc2c(c1C)N(c1ccc(O)cc1)C1(CC2)CC1 [1′-(4-hydroxyphenyl)-7′,8′-dimethyl-3′,4′-dihydro-1′H-spiro[cyclopropane-1,2′-quinolin]-6′-ol]",< 10,< 0.3
"CC(C)=CCC/C(C)=C/Cc1c(O)c(C)c(C)c2c1CCC1(CCC1)O2 [5-(3,7-dimethylocta-2,6-dienyl)-7,8-dimethylspiro[chroman-2,1′-cyclobutan]-6-ol]",< 10,< 0.3
"CONCC1Cc2c(cc(C)c(O)c2C)OC12CCC2 (stereo not drawn) [3-[(methoxyamino)methyl]-5,7-dimethyl-3,4-dihydrospiro-[chromene-2,1′-cyclobutan]-6-ol]",< 10,–
"Cc1cc2c(c(C)c1O)CCC1(CCC1)N2Cc1ccc2ccccc2n1 [5′,7′-dimethyl-1′-(quinolin-2-ylmethyl)-3′,4′-dihydro-1′H-spiro[cyclobutane-1,2′-quinolin]-6′-ol]",< 10,< 0.3
